From PMC11684029, “Discovery of VU6024578/BI02982816: An mGlu1 Positive Allosteric Modulator with Efficacy in Preclinical Antipsychotic and Cognition Models” (Journal of Medicinal Chemistry, 2024)
Read-outs that look alike come from different tables or passages of the source.

Columns and labels:
[1] = metabolite identification; format: in vitro ADME; conditions: ± NADPH; for metabolites of the furanyl ring: 60 min; for parent in 60 min samples: UV peak areas
Protocol: Across species, 19d had acceptable fraction unbound in both plasma (fu (plasma): 0.03 (human), 0.041 (rat), 0.025 (cyno), 0.039 (dog) and 0.056 (mouse)) and brain (fu (brain): 0.034 (rat) and 0.081 (mouse)).
Figure 5 Metabolite identification of VU6024578 (19d) in rat and human liver microsomes. […] Thus, we incubated 19d in rat and human liver microsomes (with and without NADPH) for 60 min and monitored by both extracted ion and UV detection for the production of metabolites and consumption of parent.

KV channel = assay: Eurofins radioligand binding panel; design: species or system rat; conditions: antagonist radioligand
Excerpt: (§1) Table S1. Eurofins Lead Profiling Screen Data
(§2) This is a radioligand binding panel of 80 targets including GPCRs, ion channels, transporters and nuclear hormones. Biochemical assay results are presented as the percent inhibition of specific […]
(§3) Results showing an inhibition or stimulation higher than 50% are considered to represent significant effect and are highlighted

SKCa channel = assay: Eurofins radioligand binding panel; design: species or system rat; conditions: antagonist radioligand
Excerpt: as §1, §2, §3

GABA (non-selective) = assay: Eurofins radioligand binding panel; design: species or system rat; conditions: agonist radioligand
Excerpt: as §1, §2, §3

[2] = test system: Ca2+ channel (L, verapamil site) (phenylalkylamine); assay: Eurofins radioligand binding panel; design: species or system rat; conditions: antagonist radioligand
Excerpt: as §1, §2, §3

PCP = assay: Eurofins radioligand binding panel; design: species or system rat; conditions: antagonist radioligand
Excerpt: as §1, §2, §3

P2Y = assay: Eurofins radioligand binding panel; design: species or system rat; conditions: agonist radioligand
Excerpt: as §1, §2, §3

rats = assay: rat AHL Cmax versus Ctrough study; format: in vivo
Protocol: Based on these positive behavioral data and the clear PK/PD relationship tied to achieving free brain levels at, or above, the mGlu1 PAM EC50, we next wanted to define the role of Cmax versus Ctrough drug (19d) concentrations in driving the PK/PD relationship. To accomplish this, pretreatment times and doses were calculated based upon previous PK (see Supporting Information Figure S3)[20] data to target free brain concentrations at and below the in vitro EC50 at the time of amphetamine challenge. Rats were pretreated with 3 mg/kg 19d or vehicle after habituation to the locomotor chambers are described in Figure 9A. Rats pretreated with 19d (10–60 mg/kg) or vehicle were administered compound prior to starting the amphetamine-induced hyperlocomotion experiment as depicted in Figure 9B-D. Ambulations were evaluated for 90 min post amphetamine treatment for all dosing groups. Pretreatment of 19d, chamber habituation, amphetamine treatment and ambulation recording times are outlined for each dosing group in Figure 9. Blood and brain samples were obtained at the end of testing (EOT) to determine 19d levels at the end of the study (Table 6).
The terminal free brain concentrations for this dosing group were 40 nM.
Figure 10 Amphetamine-induced hyperlocomotion in rats. A) 1 h pretreatment of 3 mg/kg 19d. B) 5 h pretreatment of 10 mg/kg 19d. C) 28.5 h pretreatment of 60 mg/kg 19d. Total ambulation from 95 to 180 min. *p < 0.05 compared to Vehicle + Amphetamine treated animals. TEXT PRINTED IN THE PICTURE: (A) 19d: Mean % reversal 27.3% * (3 mg/kg 19d + AMP) | (B) 19d: Mean % reversal 25.1% * (10 mg/kg 19d + AMP) | (C) 19d: Mean % reversal 7.3% (60 mg/kg 19d + AMP) DOUBTS OF THE COPYIST ABOUT THIS PICTURE: 19d, panel A, Mean % reversal: small print, 27.3% could be 27.8% / 19d, panel B, Mean % reversal: small print, 25.1% could be 26.1% / 19d, panel C, Mean % reversal: small print, 7.3% could be 7.8%

[3] = test system: Adrenergic alpha 2 (non-selective); assay: Eurofins radioligand binding panel; design: species or system rat; conditions: antagonist radioligand
Excerpt: as §1, §2
(§4) Results showing an inhibition or stimulation higher than 50% are considered to represent significant effect and are highlighted […]
(§5) Target / Protein Species % Inhibition at 10 […]

[4] = test system: Adrenergic alpha 1 (non-selective); assay: Eurofins radioligand binding panel; design: species or system rat; conditions: antagonist radioligand
Excerpt: as §1, §2, §4, §5

BB (non-selective) = assay: Eurofins radioligand binding panel; design: species or system rat; conditions: agonist radioligand
Excerpt: as §1, §2, §4, §5

sst (non-selective) = assay: Eurofins radioligand binding panel; design: species or system mouse; conditions: agonist radioligand
Excerpt: as §1, §2, §3

PDGF = assay: Eurofins radioligand binding panel; design: species or system mouse; conditions: agonist radioligand
Excerpt: as §1, §2, §3

human mGlu1 = target: T1, human mGlu1 (Homo sapiens, UniProt Q13255); assay: progressive fold-shift assay, operational model of allosterism; format: cell-based
T1 construct: expressed in transfected cells; pcDNA5/TO)
T1 sequence (Q13255 19-1194): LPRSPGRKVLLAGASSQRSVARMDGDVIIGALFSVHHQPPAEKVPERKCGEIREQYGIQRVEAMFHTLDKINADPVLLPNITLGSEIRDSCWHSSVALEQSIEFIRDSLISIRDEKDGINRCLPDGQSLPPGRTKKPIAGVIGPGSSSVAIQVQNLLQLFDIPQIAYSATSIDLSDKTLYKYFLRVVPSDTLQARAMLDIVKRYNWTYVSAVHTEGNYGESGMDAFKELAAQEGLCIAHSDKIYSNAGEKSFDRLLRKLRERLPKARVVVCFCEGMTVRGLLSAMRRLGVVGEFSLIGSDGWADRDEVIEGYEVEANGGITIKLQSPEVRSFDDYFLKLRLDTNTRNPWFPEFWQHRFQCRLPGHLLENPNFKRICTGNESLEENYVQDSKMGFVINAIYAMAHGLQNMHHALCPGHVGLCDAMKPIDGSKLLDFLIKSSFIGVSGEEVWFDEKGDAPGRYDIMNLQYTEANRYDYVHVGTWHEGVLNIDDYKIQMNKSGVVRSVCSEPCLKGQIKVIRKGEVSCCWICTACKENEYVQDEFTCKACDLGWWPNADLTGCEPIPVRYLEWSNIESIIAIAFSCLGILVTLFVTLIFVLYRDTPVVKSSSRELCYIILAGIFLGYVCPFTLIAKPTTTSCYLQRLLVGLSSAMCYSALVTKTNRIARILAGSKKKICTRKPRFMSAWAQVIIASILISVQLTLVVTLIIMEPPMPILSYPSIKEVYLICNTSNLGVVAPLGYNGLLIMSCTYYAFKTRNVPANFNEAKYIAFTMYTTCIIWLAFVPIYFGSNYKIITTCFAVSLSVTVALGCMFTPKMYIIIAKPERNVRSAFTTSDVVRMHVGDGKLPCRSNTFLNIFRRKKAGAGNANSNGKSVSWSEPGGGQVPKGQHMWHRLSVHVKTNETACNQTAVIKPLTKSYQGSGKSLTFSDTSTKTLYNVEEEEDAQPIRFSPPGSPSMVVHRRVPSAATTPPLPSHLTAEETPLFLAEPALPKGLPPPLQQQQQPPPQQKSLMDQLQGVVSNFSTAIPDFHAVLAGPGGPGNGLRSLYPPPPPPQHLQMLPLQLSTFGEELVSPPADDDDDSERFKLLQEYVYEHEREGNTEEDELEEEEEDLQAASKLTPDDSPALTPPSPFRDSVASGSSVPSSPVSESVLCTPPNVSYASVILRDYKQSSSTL
Excerpt: (§6) To further characterize this novel mGlu1 PAM, we performed progressive fold-shift assays at both human and rat mGlu1 (Figure 4).
(§7) Figure 4 Operational modeling of the effects of increasing concentrations of VU6024578 (19d) on rat (A) and human (B) mGlu1receptors. Increasing amounts of 19d were applied prior to increasing concentrations of glutamate at either rat or human mGlu1. Data were fit in GraphPad Prism as indicated in the Methods section; for panel A, log α was 0.95 and for panel B it was 1.26. Data represent one experiment performed in duplicate.

rat mGlu1 = rat mGlu1 (Rattus norvegicus, UniProt P23385); assay: as above; format: cell-based
Chain of rat mGlu1 (P23385 19-1199): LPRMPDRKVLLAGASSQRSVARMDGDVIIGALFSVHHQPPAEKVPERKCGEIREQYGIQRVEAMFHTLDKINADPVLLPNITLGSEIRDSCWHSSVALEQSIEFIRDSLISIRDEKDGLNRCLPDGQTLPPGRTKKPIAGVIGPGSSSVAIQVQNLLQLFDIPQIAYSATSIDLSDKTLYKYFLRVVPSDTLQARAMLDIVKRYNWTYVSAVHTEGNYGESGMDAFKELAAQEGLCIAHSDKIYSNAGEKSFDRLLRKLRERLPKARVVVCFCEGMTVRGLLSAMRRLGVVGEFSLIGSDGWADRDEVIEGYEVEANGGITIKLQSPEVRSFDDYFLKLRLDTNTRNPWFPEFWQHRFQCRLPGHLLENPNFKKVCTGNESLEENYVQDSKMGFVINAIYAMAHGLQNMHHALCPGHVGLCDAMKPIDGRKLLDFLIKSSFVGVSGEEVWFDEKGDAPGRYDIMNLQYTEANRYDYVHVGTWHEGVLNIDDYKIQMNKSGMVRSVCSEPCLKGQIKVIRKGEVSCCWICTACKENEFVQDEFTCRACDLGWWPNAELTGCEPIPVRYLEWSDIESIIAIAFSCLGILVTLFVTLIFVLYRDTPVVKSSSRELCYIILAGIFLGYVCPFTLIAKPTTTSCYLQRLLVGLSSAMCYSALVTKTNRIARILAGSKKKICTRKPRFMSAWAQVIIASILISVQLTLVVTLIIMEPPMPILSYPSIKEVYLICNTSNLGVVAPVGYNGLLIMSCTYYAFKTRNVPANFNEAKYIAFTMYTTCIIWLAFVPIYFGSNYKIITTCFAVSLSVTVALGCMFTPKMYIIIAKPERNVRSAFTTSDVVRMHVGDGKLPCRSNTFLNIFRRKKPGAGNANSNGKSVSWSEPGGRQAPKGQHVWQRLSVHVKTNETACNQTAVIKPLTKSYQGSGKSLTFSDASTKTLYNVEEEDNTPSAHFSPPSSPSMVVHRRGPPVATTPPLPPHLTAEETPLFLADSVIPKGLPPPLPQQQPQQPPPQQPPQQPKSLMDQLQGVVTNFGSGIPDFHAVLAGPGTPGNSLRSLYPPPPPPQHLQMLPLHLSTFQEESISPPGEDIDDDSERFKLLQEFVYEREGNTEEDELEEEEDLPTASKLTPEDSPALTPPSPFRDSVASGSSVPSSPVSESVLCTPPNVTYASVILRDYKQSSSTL
Excerpt: as §6, §7

## Cn1nc(-c2ccnn2C)cc1CNC(=O)c1cc(-c2ccco2)ccc1Cl [Compound 19d, 2-Chloro-N-((1,2′-dimethyl-1H,2’H-[3,3′-bipyrazol]-5-yl)methyl)-5-(furan-2-yl)benzamide]
[1]; human liver microsomes
  metabolites of the furanyl ring: no metabolites corresponding to oxidation or opening of the furanyl ring were detected
  parent in 60 min samples: major component observed
[1]; rat liver microsomes
  metabolites of the furanyl ring: no metabolites corresponding to oxidation or opening of the furanyl ring were detected
  parent in 60 min samples: major component observed
KV channel
  % Inhibition at 10 µM: 8%
SKCa channel
  % Inhibition at 10 µM: 2%
GABA (non-selective)
  % Inhibition at 10 µM: -3%
[2]
  % Inhibition at 10 µM: -16%
PCP
  % Inhibition at 10 µM: 2%
P2Y
  % Inhibition at 10 µM: 23%
rats; 3 mg/kg, 1 h prior to amphetamine
  effect on AHL, in words: significantly reduced
rats; 10 mg/kg, 5 h before amphetamine
  effect on AHL, in words: significantly reduced
rats; 60 mg/kg, 28.5 h before amphetamine
  reduction of locomotor activity after amphetamine, in words: not demonstrated
[3]
  % Inhibition at 10 µM: 1%
[4]
  % Inhibition at 10 µM: 19%
BB (non-selective)
  % Inhibition at 10 µM: -20%
Sst (non-selective)
  % Inhibition at 10 µM: -12%
PDGF
  % Inhibition at 10 µM: -2%
Human mGlu1; human mGlu1, operational model of allosterism, read-out: estimated KB
  Kb: 219 nM
Human mGlu1; panel B (human), one experiment in duplicate
  log α: 1.26
Human mGlu1; printed in Figure 4B
  EC50: 46 nM
Rat mGlu1; in Figure 4A
  EC50: 44 nM
Rat mGlu1; panel A (rat), one experiment in duplicate
  log α: 0.95
Rat mGlu1; rat mGlu1, operational model of allosterism, read-out: estimated KB
  Kb: 1040 nM
Rat mGlu1; rat mGlu1, printed in Figure 4A, read-out: KB
  Kb: 1040 nM
